Data on 1 molecule can be found in patent US20060029684A1, “Synergistic treatment of DNA viral infections” (Henderson Morley Research and Development Limited, priority 1999, published 2006).

Molecules are shown by their SMILES. Where two headings read alike, the source gives them in different places.

Test [1] concerns type 2 herpes simplex virus strain 3345. As to the kind of experiment: Inhibition of HSV2 replication in infected African green monkey kidney cells (Example 1, Table 1). It is filed as cell-based. To be noted: for inhibition of virus replication: Lithium 0 mN. The text has this: Compositions were applied to African green monkey kidney and […] cells infected with type 2 herpes simplex virus strains 3345 and 180 at low, intermediate and high multiplicities of infection. MOI inhibition of virus replication was scored as follows: […]

The test system of test [2] is Type 2 herpes simplex strain 3345. As to the kind of experiment: Herpes simplex virus bioassay in Vero cells, inhibition of hsv2 (Example 2). It is filed as cell-based. As to conditions: Human alphaherpesvirus 2, Vero. The method, then: . Culture and assay methods follow those described by Lennette and Schmidt (1979) for herpes simplex virus and Vero cells with minor modifications.
Type 1 herpes simplex strain HFEM is a derivative of the Rockerfeller strain HF (Wildy 1955), and Type 2 herpes simplex strain 3345, a penile isolate (Skinner et al 1977) were used as prototype strains. These prototypes were stored at −80° C. until needed.
African Green Monkey kidney cells (vero) were obtained from the National Institute of Biological Standards and Control UK and were used as the only cell line for all experiments in this example.
Cells and viruses were maintained on Glasgows modified medium supplemented with 10% foetal bovine serum.

On to `NS(=O)(=O)c1cc(C(=O)O)c(NCc2ccco2)cc1Cl` [Frusemide, 4-chloro-N-furfuryl-5-sulfamoylanthranilic acid], for which the “inhibition of virus replication” value in test [1] (HIGH MOI HSV2, Frusemide 0.5 mg/ml) was “− (No inhibition)”; in test [1] (HIGH MOI HSV2, Frusemide 1.0 mg/ml) it was “− (No inhibition)”; in test [1] (HIGH MOI HSV2, Frusemide 2.0 mg/ml), “− (No inhibition)”; in test [1] (LOW MOI HSV2, Frusemide 0.5 mg/ml), “− (No inhibition)”; in test [1] (LOW MOI HSV2, Frusemide 1.0 mg/ml) it was “− (No inhibition)”; in test [1] (LOW MOI HSV2, Frusemide 2.0 mg/ml), “− (No inhibition)”. In addition, the inhibition at 500 µg/mL in test [1] (Human alphaherpesvirus 2) came to 0%. For the same molecule, the inhibition at 1000 µg/mL in test [1] (Human alphaherpesvirus 2) was 0%; in test [2] (read-out: Inhibition of hsv2, Effect of frusemide alone, Multiplicity of infection High, frusemide (1 mg/ml)), 0%; in test [2] (read-out: Inhibition of hsv2, Effect of frusemide alone, Multiplicity of infection Low, frusemide (1 mg/ml)) it was 40%; in test [2] (read-out: Inhibition of hsv2, Effect of frusemide alone, Multiplicity of infection Medium, frusemide (1 mg/ml)), 40%. In test [1] (Human alphaherpesvirus 2), this molecule returned an inhibition at 2000 µg/mL of 0%. Moreover, the “inhibition of hsv2 replication” value in test [1] (frusemide 2 mg/ml, all multiplicities of infection) is on record as “no inhibition”.
